Assay results published in PubChem BioAssay AID248 (DTP/NCI, 2004).
“And” between values parts separate entries of the source, which are not always exact repeats. Equal entries are not always repeated. Inconclusive results and toxic doses are left out. Cut-off read from the data, not from the text of the source: active = T/C of 150% or more; inactive = T/C below 125%.

Test system: L1210 leukemia ip in BDF1 mice, survival T/C
Assay: NCI In Vivo Anticancer Drug Screen. Data for tumor model L1210 Leukemia (intraperitoneal) in B6D2F1 (BDF1) mice
Details: endpoint: mean survival time, higher = longer survival
In short: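 Tumor was transplanted into mice, which were then dosed with test compound or vehicle alone. Survival was recorded for each group, and the treated figure was expressed relative to the control figure.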

[1] = dose: 100.0 mg/kg/injection, schedule: Q01DX009 (ip), vehicle: saline with Tween-80
[2] = dose: 100.0 mg/kg/injection, schedule: Q04DX002 (ip), vehicle: saline with Tween-80
[3] = dose: 100.0 mg/kg/injection, schedule: Q04DX003 (ip), vehicle: saline with Tween-80
[4] = dose: 200.0 mg/kg/injection, schedule: Q01DX009 (ip), vehicle: saline with Tween-80
[5] = dose: 200.0 mg/kg/injection, schedule: Q04DX002 (ip), vehicle: saline with Tween-80
[6] = dose: 200.0 mg/kg/injection, schedule: Q04DX003 (ip), vehicle: saline with Tween-80
[7] = dose: 400.0 mg/kg/injection, schedule: Q01DX009 (ip), vehicle: saline with Tween-80
[8] = dose: 400.0 mg/kg/injection, schedule: Q04DX002 (ip), vehicle: saline with Tween-80
[9] = dose: 400.0 mg/kg/injection, schedule: Q04DX003 (ip), vehicle: saline with Tween-80
[10] = dose: 25.0 mg/kg/injection, schedule: Q01DX009 (ip), vehicle: saline
[11] = dose: 50.0 mg/kg/injection, schedule: Q01DX009 (ip), vehicle: saline
[12] = dose: 100.0 mg/kg/injection, schedule: Q01DX009 (ip), vehicle: Klucel (hydroxypropylcellulose) (HPC)
[13] = dose: 100.0 mg/kg/injection, schedule: Q01DX009 (ip), vehicle: saline
[14] = dose: 100.0 mg/kg/injection, schedule: Q04DX003 (ip), vehicle: Klucel (hydroxypropylcellulose) (HPC)
[15] = dose: 200.0 mg/kg/injection, schedule: Q01DX009 (ip), vehicle: Klucel (hydroxypropylcellulose) (HPC)
[16] = dose: 200.0 mg/kg/injection, schedule: Q04DX003 (ip), vehicle: Klucel (hydroxypropylcellulose) (HPC)
[17] = dose: 400.0 mg/kg/injection, schedule: Q01DX009 (ip), vehicle: Klucel (hydroxypropylcellulose) (HPC)
[18] = dose: 400.0 mg/kg/injection, schedule: Q04DX003 (ip), vehicle: Klucel (hydroxypropylcellulose) (HPC)
[19] = dose: 50.0 mg/kg/injection, schedule: Q01DX009 (ip), vehicle: saline with Tween-80
[20] = dose: 100.0 mg/kg/injection, schedule: Q01DX001 (ip), vehicle: saline
[21] = dose: 100.0 mg/kg/injection, schedule: Q04DX002 (ip), vehicle: Klucel (hydroxypropylcellulose) (HPC)
[22] = dose: 200.0 mg/kg/injection, schedule: Q01DX001 (ip), vehicle: saline
[23] = dose: 200.0 mg/kg/injection, schedule: Q04DX002 (ip), vehicle: Klucel (hydroxypropylcellulose) (HPC)
[24] = dose: 400.0 mg/kg/injection, schedule: Q04DX002 (ip), vehicle: Klucel (hydroxypropylcellulose) (HPC)
[25] = dose: 100.0 mg/kg/injection, schedule: Q04DX003 (ip), vehicle: saline
[26] = dose: 200.0 mg/kg/injection, schedule: Q04DX003 (ip), vehicle: saline
[27] = dose: 400.0 mg/kg/injection, schedule: Q01DX001 (ip), vehicle: saline
[28] = dose: 400.0 mg/kg/injection, schedule: Q04DX003 (ip), vehicle: saline
[29] = dose: 100.0 mg/kg/injection, schedule: Q01DX001 (ip), vehicle: saline with Tween-80
[30] = dose: 200.0 mg/kg/injection, schedule: Q01DX001 (ip), vehicle: saline with Tween-80
[31] = dose: 400.0 mg/kg/injection, schedule: Q01DX001 (ip), vehicle: saline with Tween-80

Measured: T/C

COc1ccc(C(=O)NC(=S)Nc2ccc(CCO)cc2)cc1
inactive: [1] 98 % of control and 101 % of control | [2] 98 % of control | [3] 96 % of control | [4] 101 % of control and 102 % of control | [5] 100 % of control | [6] 94 % of control | [7] 94 % of control and 104 % of control | [8] 98 % of control | [9] 92 % of control

CCOC(=O)c1cnn(-c2ccccc2)c1N
inactive: [10] 104 % of control | [11] 108 % of control | [12] 98 % of control | [13] 105 % of control | [14] 96 % of control | [15] 100 % of control | [16] 100 % of control | [17] 102 % of control | [18] 100 % of control

Nc1cc(Cl)c(S(=O)(=O)O)cc1Cl
inactive: [19] 90 % of control | [20] 95 % of control | [1] 107 % of control | [21] 100 % of control | [22] 86 % of control | [4] 97 % of control | [23] 91 % of control | [24] 88 % of control

CC1CCC2C(=CC(=O)CC2(C)C)C1 (stereo not drawn)
inactive: [20] 109 % of control | [25] 108 % of control | [22] 101 % of control | [26] 104 % of control | [27] 96 % of control | [28] 103 % of control

CCN(CC)COC(C)=O
inactive: [20] 103 % of control | [22] 106 % of control | [27] 106 % of control

COc1ccc(COC(=O)Oc2ccc(C#N)cc2)cc1OC
inactive: [3] 106 % of control | [6] 96 % of control | [9] 93 % of control

Cc1ccc(S(=O)(=O)N(CC(=O)O)c2c[nH]c(C(=O)O)c2)cc1
inactive: dose: 100.0 mg/kg/injection, schedule: Q01DX009 (ip), vehicle: acetone 92 % of control | dose: 200.0 mg/kg/injection, schedule: Q01DX009 (ip), vehicle: acetone 95 % of control | dose: 400.0 mg/kg/injection, schedule: Q01DX009 (ip), vehicle: acetone 88 % of control

CCCCCCOC(=O)C[n+]1cccc(C(N)=O)c1
inactive: [25] 95 % of control

COc1ccc(NC(=O)COc2ccc(C)cc2C)cc1
inactive: [21] 95 % of control | [23] 103 % of control | [24] 89 % of control

O/N=C1\CCc2ccccc21
inactive: dose: 50.0 mg/kg/injection, schedule: Q04DX002 (ip), vehicle: Klucel (hydroxypropylcellulose) (HPC) 100 % of control | [21] 92 % of control | [23] 96 % of control

CC[P+](C)(CC)c1ccccc1
inactive: dose: 15.0 mg/kg/injection, schedule: Q01DX001 (ip), vehicle: saline 98 % of control | dose: 30.0 mg/kg/injection, schedule: Q01DX001 (ip), vehicle: saline 101 % of control

COc1c2ccccc2nc2ccccc12
inactive: [3] 93 % of control | [6] 91 % of control | [9] 95 % of control

Cc1ccc(S(=O)(=O)OC2CCC(=O)C3CC4(CCC23)OCCO4)cc1 (stereo not drawn)
inactive: [29] 91 % of control | [30] 87 % of control | [31] 95 % of control

Cc1cc(Cl)c(C)c(C(=O)O)c1Cl
inactive: [11] 107 % of control | dose: 50.0 mg/kg/injection, schedule: Q04DX003 (ip), vehicle: saline 103 % of control | [20] 91 % of control | [13] 107 % of control | [25] 105 % of control | [22] 98 % of control | dose: 200.0 mg/kg/injection, schedule: Q01DX009 (ip), vehicle: saline 105 % of control | [26] 100 % of control

Cc1ccc(Cl)c(NC(=O)Nc2cccc(C(F)(F)F)c2)c1
inactive: [12] 87 % of control | [15] 87 % of control | [17] 90 % of control

CCCCCCNS(=O)(=O)c1ccc([N+](=O)[O-])cc1
inactive: [14] 100 % of control | [16] 100 % of control | [18] 93 % of control

O=C(Cl)OCC(Cl)(Cl)Cl
inactive: dose: 100.0 mg/kg/injection, schedule: Q01DX001 (ip), vehicle: Klucel (hydroxypropylcellulose) (HPC) 100 % of control | [12] 100 % of control | dose: 200.0 mg/kg/injection, schedule: Q01DX001 (ip), vehicle: Klucel (hydroxypropylcellulose) (HPC) 100 % of control | [15] 96 % of control | dose: 400.0 mg/kg/injection, schedule: Q01DX001 (ip), vehicle: Klucel (hydroxypropylcellulose) (HPC) 100 % of control

CCOC(=O)c1ccc2c3c([nH]c2c1C)-c1ccccc1CC3
inactive: dose: 50.0 mg/kg/injection, schedule: Q01DX001 (ip), vehicle: carboxymethylcellulose (CMC) 95 % of control | dose: 100.0 mg/kg/injection, schedule: Q01DX001 (ip), vehicle: carboxymethylcellulose (CMC) 97 % of control | dose: 200.0 mg/kg/injection, schedule: Q01DX001 (ip), vehicle: carboxymethylcellulose (CMC) 106 % of control | dose: 400.0 mg/kg/injection, schedule: Q01DX001 (ip), vehicle: carboxymethylcellulose (CMC) 103 % of control

CCCCCCCCCCCCCCCCCCCCCCCCC(O)C(=O)NC(CO)C(O)C(O)CCCCCCCCCCCCCC (stereo not drawn)
inactive: [1] 88 % of control | [3] 87 % of control | [4] 94 % of control | [6] 92 % of control | [7] 88 % of control | [9] 87 % of control

CCCCCCCN(CCCCCCC)CC(O)c1cc2ccccc2c2cnccc12 (stereo not drawn)
inactive: dose: 100.0 mg/kg/injection, schedule: Q01DX009 (ip), vehicle: other 98 % of control | [14] 91 % of control | dose: 200.0 mg/kg/injection, schedule: Q01DX009 (ip), vehicle: other 97 % of control | [16] 98 % of control | [18] 93 % of control

C/C(=N/Nc1ccc([N+](=O)[O-])cc1)c1ccncc1
inactive: dose: 50.0 mg/kg/injection, schedule: Q01DX009 (ip), vehicle: Klucel (hydroxypropylcellulose) (HPC) 101 % of control | [12] 111 % of control | [15] 89 % of control | [17] 105 % of control

CC1=CC(C)(C)NC(=S)N1C
inactive: dose: 6.25 mg/kg/injection, schedule: Q04DX003 (ip), vehicle: saline with Tween-80 96 % of control | dose: 12.5 mg/kg/injection, schedule: Q04DX003 (ip), vehicle: saline with Tween-80 95 % of control | dose: 25.0 mg/kg/injection, schedule: Q04DX003 (ip), vehicle: saline with Tween-80 95 % of control | dose: 166.0 mg/kg/injection, schedule: Q01DX Z (ip), vehicle: methylcellulose (MC) 87 % of control

C[n+]1ccccc1C(=O)O
inactive: [20] 97 % of control | [25] 97 % of control | [22] 106 % of control | [26] 95 % of control | [27] 101 % of control | [28] 92 % of control

CCN(CC)CCNc1nc(-c2cc(C(F)(F)F)cc(C(F)(F)F)c2)nc(C(Cl)(Cl)Cl)n1
inactive: dose: 100.0 mg/kg/injection, schedule: Q04DX002 (ip), vehicle: saline 88 % of control | dose: 200.0 mg/kg/injection, schedule: Q04DX002 (ip), vehicle: saline 101 % of control | dose: 400.0 mg/kg/injection, schedule: Q04DX002 (ip), vehicle: saline 88 % of control

O=C(NC(=S)Nc1ccc2c(c1)C(=O)c1ccccc1C2=O)c1cccc(Br)c1
inactive: [19] 98 % of control | [29] 96 % of control | [1] 98 % of control and 92 % of control | [2] 96 % of control and 97 % of control | [30] 93 % of control | [4] 97 % of control and 98 % of control | [5] 94 % of control and 103 % of control | [31] 103 % of control | [8] 96 % of control and 97 % of control

CCOC(=O)c1cnc(SC)nc1N(C)C
inactive: [3] 96 % of control | [6] 96 % of control

Cn1c(O)c(C=N)c(=O)n(C)c1=O
inactive: [10] 101 % of control | [11] 100 % of control | [13] 87 % of control | [25] 98 % of control

c1ccc(CCN2CCN(CCc3ccccn3)CC2)nc1
inactive: [20] 98 % of control
